“And” between values parts separate entries of the source, which are not always exact repeats. Equal values may be shown once. Toxic doses and inconclusive results are not listed.
Tested on: B6C3F1 mice, ip Sarcoma M5076, median survival T/C
Test: NCI In Vivo Anticancer Drug Screen. Data for tumor model Sarcoma M5076 (intraperitoneal) in B6C3F1 mice
Settings: endpoint: median survival time, higher = longer survival
Method in brief: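 Antitumour effect is judged in tumour-bearing mice by comparing survival after compound dosing against vehicle-only animals, reported as T/C.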

[1] = dose: 25.0 mg/kg/injection, schedule: Q04DX004 (ip), vehicle: Klucel (hydroxypropylcellulose) (HPC)
[2] = dose: 50.0 mg/kg/injection, schedule: Q04DX004 (ip), vehicle: Klucel (hydroxypropylcellulose) (HPC)
[3] = dose: 100.0 mg/kg/injection, schedule: Q04DX004 (ip), vehicle: Klucel (hydroxypropylcellulose) (HPC)
[4] = dose: 200.0 mg/kg/injection, schedule: Q04DX004 (ip), vehicle: Klucel (hydroxypropylcellulose) (HPC)
[5] = dose: 50.0 mg/kg/injection, schedule: Q04DX004 (ip), vehicle: saline with Tween-80
[6] = dose: 100.0 mg/kg/injection, schedule: Q04DX004 (ip), vehicle: saline with Tween-80
[7] = dose: 200.0 mg/kg/injection, schedule: Q04DX004 (ip), vehicle: saline with Tween-80
[8] = dose: 400.0 mg/kg/injection, schedule: Q04DX004 (ip), vehicle: saline with Tween-80
[9] = dose: 400.0 mg/kg/injection, schedule: Q04DX004 (ip), vehicle: Klucel (hydroxypropylcellulose) (HPC)
[10] = dose: 800.0 mg/kg/injection, schedule: Q04DX004 (ip), vehicle: Klucel (hydroxypropylcellulose) (HPC)

## Nc1nc(=O)nc2[nH]c3c4cccc5cccc(c3nc12)c54 (tested in a mixture with another compound)
dose: 18.75 mg/kg/injection, schedule: Q04DX004 (ip), vehicle: Klucel (hydroxypropylcellulose) (HPC)
  T/C: 104 % of control
dose: 37.5 mg/kg/injection, schedule: Q04DX004 (ip), vehicle: Klucel (hydroxypropylcellulose) (HPC)
  T/C: 102 % of control
dose: 75.0 mg/kg/injection, schedule: Q04DX004 (ip), vehicle: Klucel (hydroxypropylcellulose) (HPC)
  T/C: 104 % of control
dose: 150.0 mg/kg/injection, schedule: Q04DX004 (ip), vehicle: Klucel (hydroxypropylcellulose) (HPC)
  T/C: 98 % of control
dose: 300.0 mg/kg/injection, schedule: Q04DX004 (ip), vehicle: Klucel (hydroxypropylcellulose) (HPC)
  T/C: 94 % of control

## [N-]=[N+]=CC(=O)CCC(NC(=O)OCc1ccccc1)C(=O)OCc1ccccc1 (stereo not given)
[1]
  T/C: 113 % of control
[2]
  T/C: 115 % of control
[3]
  T/C: 121 % of control
[4]
  T/C: 121 % of control

## CC1=C(/C=C/C(C)=C/C=C/C(C)=C/C(=O)Nc2ccc(O)cc2)C(C)(C)CCC1
dose: 25.0 mg/kg/injection, schedule: Q04DX004 (ip), vehicle: saline with Tween-80
  T/C: 97 % of control
[5]
  T/C: 96 % of control
[6]
  T/C: 105 % of control
[7]
  T/C: 95 % of control
[8]
  T/C: 97 % of control

## CCOc1c2c(nn(C)c1=O)Oc1ccccc1N2CCCN1CCOCC1
dose: 7.5 mg/kg/injection, schedule: Q04DX004 (ip), vehicle: saline with Tween-80
  T/C: 92 % of control
dose: 15.0 mg/kg/injection, schedule: Q04DX004 (ip), vehicle: saline with Tween-80
  T/C: 106 % of control
dose: 30.0 mg/kg/injection, schedule: Q04DX004 (ip), vehicle: saline with Tween-80
  T/C: 113 % of control
dose: 60.0 mg/kg/injection, schedule: Q04DX004 (ip), vehicle: saline with Tween-80
  T/C: 97 % of control

## Nc1ccn(C2CC(N)C(CO)O2)c(=O)n1 (stereo not given)
dose: 25.0 mg/kg/injection, schedule: Q04DX004 (ip), vehicle: water
  T/C: 109 % of control
dose: 50.0 mg/kg/injection, schedule: Q04DX004 (ip), vehicle: water
  T/C: 118 % of control and 120 % of control
dose: 100.0 mg/kg/injection, schedule: Q04DX004 (ip), vehicle: water
  T/C: 121 % of control and 124 % of control
dose: 800.0 mg/kg/injection, schedule: Q04DX004 (ip), vehicle: water
  T/C: 163 % of control

## CN(C)CCNC1=CC(=O)c2ccccc2C1=O
dose: 50.0 mg/kg/injection, schedule: Q04DX004 (ip), vehicle: distilled water + Tween-80
  T/C: 101 % of control
dose: 100.0 mg/kg/injection, schedule: Q04DX004 (ip), vehicle: distilled water + Tween-80
  T/C: 101 % of control

## N#CC1C(=O)NC(=O)C(C#N)C1c1c2ccccc2cc2ccccc12 (stereo not given)
[2]
  T/C: 96 % of control
[3]
  T/C: 103 % of control
[4]
  T/C: 94 % of control
[9]
  T/C: 106 % of control
[10]
  T/C: 102 % of control

## CC(=O)[O][Pb]([O]C(C)=O)([c]1ccccc1)[c]1ccccc1
[2]
  T/C: 100 % of control
[3]
  T/C: 104 % of control
[4]
  T/C: 99 % of control
[9]
  T/C: 97 % of control
[10]
  T/C: 114 % of control

## CC[C@@H](C)[C@@H]1NC(=O)C(NC(=O)C(CC(C)C)N(C)C(=O)C2CCCN2C(=O)C(C)O)C(C)OC(=O)C(Cc2ccc(OC)cc2)N(C)C(=O)C2CCCN2C(=O)C(CC(C)C)NC(=O)C(C)C(=O)C(C(C)C)OC(=O)C[C@H]1O (stereo not given in full)
dose: 0.13 mg/kg/injection, schedule: Q04DX004 (ip), vehicle: distilled water + alcohol
  T/C: 120 % of control
dose: 0.36 mg/kg/injection, schedule: Q04DX004 (ip), vehicle: distilled water + alcohol
  T/C: 171 % of control
dose: 0.6 mg/kg/injection, schedule: Q04DX004 (ip), vehicle: distilled water + alcohol
  T/C: 209 % of control
dose: 45.0 micrograms/kg/injection, schedule: Q04DX004 (ip), vehicle: distilled water + alcohol
  T/C: 117 % of control
dose: 90.0 micrograms/kg/injection, schedule: Q04DX004 (ip), vehicle: distilled water + alcohol
  T/C: 115 % of control

## O=C(Nc1cccnc1)c1ccc([N+](=O)[O-])s1
dose: 3.0 mg/kg/injection, schedule: Q04DX004 (ip), vehicle: saline
  T/C: 102 % of control
dose: 6.0 mg/kg/injection, schedule: Q04DX004 (ip), vehicle: saline
  T/C: 97 % of control
dose: 12.0 mg/kg/injection, schedule: Q04DX004 (ip), vehicle: saline
  T/C: 96 % of control
dose: 24.0 mg/kg/injection, schedule: Q04DX004 (ip), vehicle: saline
  T/C: 87 % of control
dose: 48.0 mg/kg/injection, schedule: Q04DX004 (ip), vehicle: saline
  T/C: 89 % of control

## O=C(Nc1ccccc1O)C1C(=O)C(=O)N(c2ccccc2O)C1=O (stereo not given)
[5]
  T/C: 106 % of control
[6]
  T/C: 103 % of control
[7]
  T/C: 100 % of control
[8]
  T/C: 100 % of control
dose: 800.0 mg/kg/injection, schedule: Q04DX004 (ip), vehicle: saline with Tween-80
  T/C: 95 % of control

## CCN(CC)CCOC(=O)c1cc2cc3cc(C(=O)OCCN(CC)CC)c(=O)oc3c(C)c2oc1=O
dose: 37.5 mg/kg/injection, schedule: Q04DX004 (ip), vehicle: saline
  T/C: 100 % of control
dose: 75.0 mg/kg/injection, schedule: Q04DX004 (ip), vehicle: saline
  T/C: 92 % of control
dose: 150.0 mg/kg/injection, schedule: Q04DX004 (ip), vehicle: saline
  T/C: 93 % of control

## CCN(CC)CCOC(=O)c1c(C)oc2cc3c(C(=O)OCCN(CC)CC)c(C)oc3cc12
[1]
  T/C: 105 % of control
[2]
  T/C: 99 % of control
[3]
  T/C: 109 % of control
[4]
  T/C: 104 % of control
[9]
  T/C: 106 % of control

## O=c1[nH]cnc2c1ncn2C1CC2[O][Sn]([c]3ccccc3)([c]3ccccc3)[O]CC2O1 (stereo not given)
dose: 37.5 mg/kg/injection, schedule: Q04DX004 (ip), vehicle: distilled water + Tween-80
  T/C: 106 % of control
dose: 75.0 mg/kg/injection, schedule: Q04DX004 (ip), vehicle: distilled water + Tween-80
  T/C: 104 % of control
dose: 150.0 mg/kg/injection, schedule: Q04DX004 (ip), vehicle: distilled water + Tween-80
  T/C: 101 % of control
dose: 300.0 mg/kg/injection, schedule: Q04DX004 (ip), vehicle: distilled water + Tween-80
  T/C: 105 % of control
dose: 600.0 mg/kg/injection, schedule: Q04DX004 (ip), vehicle: distilled water + Tween-80
  T/C: 110 % of control

## O=S(=O)(O)O
dose: 30.0 mg/kg/injection, schedule: Q01DX009 (ip), vehicle: water
  T/C: 103 % of control
dose: 44.0 mg/kg/injection, schedule: Q01DX009 (ip), vehicle: water
  T/C: 96 % of control

## O=S1(=O)C(c2ccc(F)cc2)=C(O)c2cc3ccccc3nc21
dose: 17.19 mg/kg/injection, schedule: Q04DX004 (ip), vehicle: sodium bicarbonate
  T/C: 97 % of control
dose: 34.38 mg/kg/injection, schedule: Q04DX004 (ip), vehicle: sodium bicarbonate
  T/C: 93 % of control
dose: 68.75 mg/kg/injection, schedule: Q04DX004 (ip), vehicle: sodium bicarbonate
  T/C: 93 % of control

## CCN(CC)C(=Nc1ccc(Cl)c(Cl)c1)SC(NC=O)=C(Cl)Cl
dose: 50.0 mg/kg/injection, schedule: Q04DX004 (ip), vehicle: Klucel + Tween-80
  T/C: 104 % of control
dose: 100.0 mg/kg/injection, schedule: Q04DX004 (ip), vehicle: Klucel + Tween-80
  T/C: 97 % of control
dose: 200.0 mg/kg/injection, schedule: Q04DX004 (ip), vehicle: Klucel + Tween-80
  T/C: 91 % of control

## CC1=CC(C)(C)Nc2ccc(OC(=O)/C=C(C)/C=C/C=C(C)/C=C/C3=C(C)CCCC3(C)C)cc21
dose: 37.5 mg/kg/injection, schedule: Q04DX004 (ip), vehicle: saline with Tween-80
  T/C: 96 % of control
dose: 75.0 mg/kg/injection, schedule: Q04DX004 (ip), vehicle: saline with Tween-80
  T/C: 98 % of control
dose: 150.0 mg/kg/injection, schedule: Q04DX004 (ip), vehicle: saline with Tween-80
  T/C: 98 % of control
dose: 300.0 mg/kg/injection, schedule: Q04DX004 (ip), vehicle: saline with Tween-80
  T/C: 89 % of control
dose: 600.0 mg/kg/injection, schedule: Q04DX004 (ip), vehicle: saline with Tween-80
  T/C: 89 % of control

## CC1=CC(C)(C)N=C2SC(COc3ccccc3)=NN12
[5]
  T/C: 104 % of control
[6]
  T/C: 96 % of control
[7]
  T/C: 93 % of control
[8]
  T/C: 99 % of control

## COc1ccc(CCN2C(=O)C(=O)N(c3ccc(Cl)c(Cl)c3)C2=O)cc1OC
[2]
  T/C: 99 % of control
[3]
  T/C: 98 % of control
[4]
  T/C: 94 % of control
[9]
  T/C: 89 % of control
[10]
  T/C: 93 % of control

## CCn1c2ccccc2c2cc(N=Nc3cc4ccccc4cc3O)ccc21
dose: 43.75 mg/kg/injection, schedule: Q04DX004 (ip), vehicle: Klucel (hydroxypropylcellulose) (HPC)
  T/C: 89 % of control

Source: PubChem BioAssay AID292 (DTP/NCI, 2004)
